The structures appear in SMILES notation.

Assay [1] has as its target PRMT5:MEP50 (Homo sapiens, UniProt O14744). Description: PRMT5 biochemical HTRF assay (Biochemical Assay Protocol 1 / 2). The settings on record: biotinylated H4R3 substrate, 1 μM SAM, protocol 1 or 2 not given, activity range 300 pM to 950 pM, read-out: IC50 (PRMT5 inhibition), activity range. On the procedure:
Biochemical Assay Protocol 1
(§1) Inhibitory effect of compounds on PRMT5 was assessed using HTRF detection technology in biochemical assay. Biotinylated H4R3 (residues 1-21) was used as a substrate. Compounds were pre-incubated with 15-25 ng PRMT5:MEP50 per well of a 384-well plate for 30 min at room temperature in the assay buffer containing 20 mM Bicine, pH 7.6, 25 mM NaCl, 2 mM DTT, 0.01% Chicken albumin and 0.01% Tween-20. Reaction was initiated by adding 1 μM of SAM and 50 nM biotinylated H4R3. Total assay volume was 15 μL. Reaction was continued for 120 min at room temperature. Then detection solution containing Streptavidin-Eu cryptate, anti-rabbit IgG-XL-665, Histone H4R3 Dimethyl Symmetric (H4R3me2s) Polyclonal Antibody, all prepared in HTRF detection buffer was added and further incubated for 30 min at room temperature. HTRF signal was recorded in PHERAStar microplate reader. Ratio of signal obtained at 665 nm and 620 nm was used to compute the percent inhibition of compound as follows % Inhibition=100−((Test Ratio−Negative control Ratio)/(Positive control Ratio−Negative control Ratio)*100) where Positive control=PRMT5+SAM+H4R3 Negative control=PRMT5+H4R3 Biochemical Assay Protocol 2
as §1, with “2.5” for “15-25”, “4 h” for “120 min”, “control=PRMT5+H4R3” for “control=PRMT5+H4R3 Biochemical Assay Protocol 2”

Assay [2] has as its system PANC-1 cells. Kind of assay: Anti-cancer assay (Panc-1), cell viability CellTiterGlo. The format is cell-based. The settings on record: Homo sapiens, PANC-1, 168 h, 7 days. The protocol: Anticancer Activity Assay
Z-138 cells were seeded at a density of 2000-3000 cells per well in culture media (IMDM+10% FBS). PANC-1 (ATCC, CRL-1469™) and MIA PaCa-2 (ATCC, CRL-1420™) cells were seeded at a density of 200-300 cells per well in culture media (DMEM+10% FBS). Cells were seeded in opaque, flat bottomed tissue culture grade 96-well plates and Z-138 cells (suspension) were seeded and treated on the same day with various concentrations of test compounds. PANC-1 and MIA PaCa-2 cells, being adherent, were kept for overnight settlement at standard cell culture conditions (37° C., 5% CO2). On the following day, cells were treated with various concentrations of test compounds. Cells were treated with test compounds for a period of 96 h, 7 days and 10 days, for Z-138 cells, PANC-1 cells and MIA PaCa-2 cells, respectively. Cell viability was assessed using CellTiterGlo™ (Promega, USA) as per manufacturer's instructions. Relative Light Units (RLU) were read in Synergy™ 2 reader (Biotek, USA). The assay measures cellular ATP as an indicator of cell viability. RLU is proportional to the number of viable cells in the respective well.
% inhibition of cell viability was calculated relative to the vehicle control samples containing media with 0.1% DMSO alone as per the formula below. (Avg. of Untreated Control−Avg. of Test)×100 Avg. of Untreated Control
The IC50 values of individual compounds were calculated with Non Linear Regression Analysis using Graph Pad Prism (Graph Pad software, Inc, USA).
Anti-Cancer Assay (Panc-1)

[3] abbreviates: activity range, lower bound in pM, upper bound in nM.

Sequence of PRMT5:MEP50 (O14744 whole entry): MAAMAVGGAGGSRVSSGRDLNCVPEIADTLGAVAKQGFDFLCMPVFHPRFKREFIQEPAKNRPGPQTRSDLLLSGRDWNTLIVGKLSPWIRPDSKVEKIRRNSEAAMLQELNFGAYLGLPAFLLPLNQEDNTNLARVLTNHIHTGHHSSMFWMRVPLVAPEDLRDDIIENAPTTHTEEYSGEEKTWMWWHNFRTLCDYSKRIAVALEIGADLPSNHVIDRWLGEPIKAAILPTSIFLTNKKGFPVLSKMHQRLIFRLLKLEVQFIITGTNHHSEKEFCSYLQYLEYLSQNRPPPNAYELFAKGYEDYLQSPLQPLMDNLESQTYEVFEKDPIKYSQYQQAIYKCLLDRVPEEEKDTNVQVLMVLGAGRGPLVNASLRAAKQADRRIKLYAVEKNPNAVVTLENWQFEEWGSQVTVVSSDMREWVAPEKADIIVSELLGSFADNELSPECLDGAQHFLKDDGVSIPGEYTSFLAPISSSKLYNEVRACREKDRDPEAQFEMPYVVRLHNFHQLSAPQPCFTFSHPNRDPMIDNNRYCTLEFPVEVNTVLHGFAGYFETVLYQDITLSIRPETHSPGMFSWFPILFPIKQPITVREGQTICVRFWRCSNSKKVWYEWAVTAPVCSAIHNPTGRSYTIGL
Sequence of PRMT5:MEP50 (Q9BQA1 whole entry partner): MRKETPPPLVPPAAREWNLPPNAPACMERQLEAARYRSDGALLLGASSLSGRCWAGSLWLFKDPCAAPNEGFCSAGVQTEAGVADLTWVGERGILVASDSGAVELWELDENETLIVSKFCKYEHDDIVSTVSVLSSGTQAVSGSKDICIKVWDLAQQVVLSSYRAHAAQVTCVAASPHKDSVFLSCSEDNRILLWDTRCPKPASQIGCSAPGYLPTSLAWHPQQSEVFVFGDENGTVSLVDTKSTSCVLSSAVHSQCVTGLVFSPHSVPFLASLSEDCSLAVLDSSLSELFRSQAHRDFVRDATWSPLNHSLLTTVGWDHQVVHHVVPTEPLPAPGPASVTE

With `CC(Cc1ccc2cc(Br)c(N)nc2c1)C1=C[C@@H](n2ccc3c(N)ncnc32)[C@H](O)[C@@H]1O` (single isomer, unassigned) [Compound-7a], the IC50 in assay [1] lay within 0.3 to 0.95 nM; in assay [2] (setting [3]), 300 to 20000 pM. As for `CC(Cc1ccc2cc(Cl)c(N)nc2c1)C1=C[C@@H](n2ccc3c(N)ncnc32)[C@H](O)[C@@H]1O` (single isomer, unassigned) [Compound-34b], the IC50 lay in the range of 0.3 to 0.95 nM in assay [1] and 300 to 20000 pM in assay [2] (setting [3]). `Cc1ncnc2c1ccn2[C@@H]1C=C(C(C)Cc2cc(F)c3cc(Cl)c(N)nc3c2)[C@@H](O)[C@H]1O` (single isomer, unassigned) [Compound-35a]: the IC50 in assay [2] (setting [3]) was 300 to 20000 pM. With `Cc1ncnc2c1ccn2[C@@H]1C=C(C(C)Cc2cc(F)c3cc(Cl)c(N)nc3c2)[C@@](C)(O)[C@H]1O` (single isomer, unassigned) [Compound-36a], in assay [1], the IC50 is 0.3 to 0.95 nM. Consider `CC(Cc1cc(F)c2cc(Br)c(N)nc2c1)C1=C[C@@H](n2ccc3c(N)ncnc32)[C@H](O)[C@@H]1O` (single isomer, unassigned) [Compound-45a], for which, in assay [1], the IC50 was 0.3 to 0.95 nM. On to `CC(Cc1ccc2cc(Br)c(N)nc2c1)[C@@]12C[C@@H]1[C@@H](n1ccc3c(N)ncnc31)[C@H](O)[C@@H]2O` (stereo partly drawn) [76b, (1S,2R,3S,4R,5S)-1-((S)-1-(2-Amino-3-bromoquinolin-7-yl)propan-2-yl)-4-(4-amino-7H-pyrrolo[2,3-d]pyrimidin-7-yl)bicyclo[3.1.0]hexane-2,3-diol], for which, in assay [2] (activity range 20 nM to 100 nM), the IC50 lay within 20000 to 100000 pM. Consider `Nc1nc2cc(CCC3=C[C@@H](n4ccc5c(N)ncnc54)[C@H](O)[C@@H]3O)ccc2cc1Br` [Compound-1, (1S,2R,5R)-3-(2-(2-Amino-3-bromoquinolin-7-yl)ethyl)-5-(4-amino-7H pyrrolo[2,3-d]pyrimidin-7-yl)cyclopent-3-ene-1,2-diol], for which the figures for the IC50 in assay [1] and in assay [2] (setting [3]) were 0.3 to 0.95 nM and 300 to 20000 pM, respectively. In the case of `Nc1nc2cc(CCC3=C[C@@H](n4ccc5c(N)ncnc54)[C@H](O)[C@@H]3O)ccc2cc1Cl` [Compound-2, (1S,2R,5R)-3-(2-(2-amino-3-chloroquinolin-7-yl)ethyl)-5-(4-amino-7H-pyrrolo[2,3-d]pyrimidin-7-yl)cyclopent-3-ene-1,2-diol], the IC50 in assay [1] was in the range of 0.3 to 0.95 nM; in assay [2] (setting [3]) it was 300 to 20000 pM. Turning to `Nc1nc2cc(CCC3=C[C@@H](n4ccc5cnccc54)[C@H](O)[C@@H]3O)cc(F)c2cc1Cl` [Compound-15, (1S,2R,5R)-3-(2-(2-Amino-3-chloro-5-fluoroquinolin-7-yl)ethyl)-5-(1H-pyrrolo[3,2-c]pyridin-1-yl)cyclopent-3-ene-1,2-diol], in assay [1], the IC50 fell in the range of 0.3 to 0.95 nM. For the compound `Nc1nc2cc(OCC3=C[C@@H](n4ccc5c(N)ncnc54)[C@H](O)[C@@H]3O)cc(F)c2cc1Cl` [Compound-18, (1S,2R,5R)-3-(((2-amino-3-chloro-5-fluoroquinolin-7-yl)oxy)methyl)-5-(4-amino-7H-pyrrolo[2,3-d]pyrimidin-7-yl)cyclopent-3-ene-1,2-diol], the IC50 in assay [1] was 0.3 to 0.95 nM; in assay [2] (setting [3]), 300 to 20000 pM. For `Cc1ncnc2c1ccn2[C@@H]1C=C(CCc2ccc3cc(Cl)c(N)nc3c2)[C@@H](O)[C@H]1O` [Compound-21, (1S,2R,5R)-3-(2-(2-amino-3-chloroquinolin-7-yl)ethyl)-5-(4-methyl-7H-pyrrolo[2,3-d]pyrimidin-7-yl)cyclopent-3-ene-1,2-diol], the IC50 in assay [1] lay within 0.3 to 0.95 nM; in assay [2] (setting [3]), 300 to 20000 pM. As for `Nc1nc2cc(CCC3=C[C@@H](n4ccc5c(N)ncnc54)[C@H](O)[C@@H]3O)ccc2cc1F` [Compound-23, (1S,2R,5R)-3-(2-(2-Amino-3-fluoroquinolin-7-yl)ethyl)-5-(4-amino-7H-pyrrolo[2,3-d]pyrimidin-7-yl)cyclopent-3-ene-1,2-diol], the IC50 in assay [1] lay within 0.3 to 0.95 nM.

Regarding `Nc1nc2cc(CCC3=C[C@@H](n4ccc5c(N)ncnc54)[C@H](O)[C@@H]3O)cc(Cl)c2cc1Cl` [Compound-29, (1S,2R,5R)-3-(2-(2-amino-3,5-dichloroquinolin-7-yl)ethyl)-5-(4-amino-7H-pyrrolo[2,3-d]pyrimidin-7-yl)cyclopent-3-ene-1,2-diol], in assay [2] (activity range 20 nM to 100 nM), the IC50 was 20000 to 100000 pM. In the case of `Nc1ncc2ccn([C@@H]3C=C(CCc4ccc5cc(Cl)c(N)nc5c4)[C@@H](O)[C@H]3O)c2n1` [Compound-30, (1S,2R,5R)-3-(2-(2-amino-3-chloroquinolin-7-yl)ethyl)-5-(2-amino-7H-pyrrolo[2,3-d]pyrimidin-7-yl)cyclopent-3-ene-1,2-diol], in assay [2] (setting [3]), the IC50 lay within 300 to 20000 pM. In the case of `C[C@@]1(O)C(CCc2cc(F)c3cc(Cl)c(N)nc3c2)=C[C@@H](n2ccc3c(N)ncnc32)[C@@H]1O` [Compound-37, (1S,2R,5R)-3-(2-(2-amino-3-chloro-5-fluoroquinolin-7-yl)ethyl)-5-(4-amino-7H-pyrrolo[2,3-d]pyrimidin-7-yl)-2-methylcyclopent-3-ene-1,2-diol], the IC50 in assay [1] lay in the range of 0.3 to 0.95 nM; in assay [2] (setting [3]), 300 to 20000 pM. In the same order, the values of `CC(Cc1cc(F)c2cc(Cl)c(N)nc2c1)C1=C[C@@H](n2ccc3c(N)ncnc32)[C@H](O)[C@]1(C)O` (stereo partly drawn) [Compound-38, (1S,2R,5R)-3-(1-(2-amino-3-chloro-5-fluoroquinolin-7-yl)propan-2-yl)-5-(4-amino-7H-pyrrolo[2,3-d]pyrimidin-7-yl)-2-methylcyclopent-3-ene-1,2-diol] are 0.3 to 0.95 nM and 300 to 20000 pM. For the compound `CC[C@@]1(O)C(CCc2cc(F)c3cc(Cl)c(N)nc3c2)=C[C@@H](n2ccc3c(N)ncnc32)[C@@H]1O` [Compound-40, (1S,2R,5R)-3-(2-(2-amino-3-chloro-5-fluoroquinolin-7-yl)ethyl)-5-(4-amino-7H-pyrrolo[2,3-d]pyrimidin-7-yl)-2-ethylcyclopent-3-ene-1,2-diol], the IC50 in assay [2] (setting [3]) is 300 to 20000 pM. For `CCc1ncnc2c1ccn2[C@@H]1C=C(CCc2cc(F)c3cc(Cl)c(N)nc3c2)[C@@H](O)[C@H]1O` [Compound-41, (1S,2R,5R)-3-(2-(2-amino-3-chloro-5-fluoroquinolin-7-yl)ethyl)-5-(4-ethyl-7H-pyrrolo[2,3-d]pyrimidin-7-yl)cyclopent-3-ene-1,2-diol], the IC50 in assay [2] (setting [3]) was 300 to 20000 pM. As for `Cc1ncnc2c1ccn2[C@@H]1C=C(CCc2cc(F)c3cc(Br)c(N)nc3c2)[C@@H](O)[C@H]1O` [Compound-44, (1S,2R,5R)-3-(2-(2-Amino-3-bromo-5-fluoroquinolin-7-yl)ethyl)-5-(4-methyl-7H-pyrrolo[2,3-d]pyrimidin-7-yl)cyclopent-3-ene-1,2-diol], the IC50 in assay [1] lay in the range of 0.3 to 0.95 nM. Regarding `Nc1ccc2cc(F)c(CCC3=C[C@@H](n4ccc5c(N)ncnc54)[C@H](O)[C@@H]3O)cc2n1` [Compound-46, (1S,2R,5R)-3-(2-(2-Amino-6-fluoroquinolin-7-yl)ethyl)-5-(4-amino-7H-pyrrolo[2,3-d]pyrimidin-7-yl)cyclopent-3-ene-1,2-diol], the IC50 in assay [2] (setting [3]) lay within 300 to 20000 pM. In the case of `Cc1cc2ccc(CC[C@@]34C[C@@H]3[C@@H](n3ccc5c(N)ncnc53)[C@H](O)[C@@H]4O)cc2nc1N` [Compound-54, (1R,2R,3S,4R,5S)-1-(2-(2-Amino-3-methylquinolin-7-yl)ethyl)-4-(4-amino-7H-pyrrolo[2,3-d]pyrimidin-7-yl) bicyclo[3.1.0]hexane-2,3-diol], the IC50 in assay [2] (setting [3]) lay in the range of 300 to 20000 pM.

What is called IC50 is the concentration needed to halve the response being measured.

Source of the values: US11459330B2, “Substituted bicyclic heterocyclic compounds as PRMT5 inhibitors” (LUPIN LIMITED, priority 2017, dated 2022).
